Test results: US20080113900A1, “Pharmaceutical compositions and therapeutic applications for the use of a synthetic vitamin B12 derivative, glutathionylcobalamin” (priority 2006, published 2008)
Values joined by “and” are separate entries in the source; they are usually repeats but may differ in a detail not shown here. Identical values can stand only once. Counter-ions that a name gives are not always drawn.

Legend:
SK-HEP-1 cells [1] = test: Protection of endothelial cells from homocysteine-induced cell death (MTS assay); assay type: cell-based, human
Experimental: The effect of a constant concentration of NACCbl and GSCbl to protect cells against variable concentrations of homocysteine was assessed. […] Cell viability was determined by MTS® assay. Data shown in FIG. 4 are representative of means ±SE of 6 independent samples. FIG. 4 illustrates that NACCbl (▪) and GSCbl (▴) protect endothelial cells from the effect of homocysteine. […] Cell viability was determined by MTS® assay. […] There was a decrease in protection as homocysteine concentration increased, but there was still ˜60% survival at 50 μM homocysteine.
The data was normalized (log 2 and log 10) as shown in FIGS. 16 and 17 and Tables 16 and 17, respectively, below.

Hsp32 = Hsp32 gene expression (RT-PCR, densitometry); assay type: cell-based, human
Experimental: (§1) Cells were plated into 6-, 12-, or 24-well cell culture clusters, at 2×10^3, 2×10^5, or 1×10^5 cells per well and incubated until 90% confluent. Treatments were applied as above.
(§2) Following incubation, cells were subjected to mRNA extraction followed by cDNA synthesis for each sample under test. Polymerase chain reaction cDNA templates were prepared for simplex PCR protocol. PCR products were then visualized using a UV Transilluminator and images captured using a Kodak ID gel imaging system. Densitometry and statistical analysis was then performed on each gene expression band image using PSP® v 10.0 running under Windows XP®.
(§3) mRNA extraction was performed using the Quickprep micro mRNA Purification Kit. Following incubation of cells post-treatment, the media was removed from the cells, adherent cells were re-suspended in 0.4 ml extraction buffer and 0.8 ml elution buffer at 65° C. was added.
A reaction mixture was prepared in individual microcentrifuge tubes containing 2 cDNA synthesis beads, 32 μl of the mRNA solution and 1 μl of pd(N)6. This mixture was incubated at 37° C. in a water bath for 60 minutes. After incubation, 27 μl of RNase-free DEPC treated water was added to each tube to make a total volume 60 μl. cDNA samples were prepared in duplicate. Sample 1 was used immediately in RT-PCR protocol. Sample 2 was prepared for qPCR protocol by the addition of 150 μl of 95% ice-cold ethanol and stored at −20° C.
Microcentrifuge tubes from puReTaq™Ready-To-Go™ PCR Beads containing one PCR bead were labeled for each sample required. Added to the PCR bead were 17 μl of RNase-free DEPC treated water, 1 μl sense primer, 1 μl anti-sense primer and 5 μl of the cDNA solution. RT-PCR conditions were as follows: Hsp70 and β-actin, pre-treatment step, 94° C. for 1 minute, followed by denaturing at 92° C. for 1 minute, annealing at 60° C. for 1 minute and extension at 72° C. for 1 minute. Total cycles, 30, post-treatment was then carried out at 72° C. for 10 minutes. For Hsp32, pre-treatment step, 95° C. for 2 minutes, followed by denaturing at 94° C. for 30 seconds, annealing at 58° C. for 1 minute and extension at 72° C. for 1 minute. Total cycles 45, post treatment was then carried out at 72° C. for 10 minutes. Following RT-PCR, samples were stored at −20° C.
Gels were visualised on a UV Transilluminator. Photographs were stored using a Kodak Digital camera system fitted with a UV filter set connected to a PC. Images were then transferred to the Kodak ID gel imaging system. Densitometry was performed on each gene expression band using PSP™ v10 running under Windows XP®.
Experiments were conducted using Hsp32 and Hsp 70 gene expression as the basis for study. […] The densitometric data are presented as means ±SEM of n=3 separate experiments. *p<0.05 or **p<0.01, treatment vs. control.

in vitro = conditions: human, SK-HEP-1 cells
Hsp70 = Hsp70 gene expression (RT-PCR, densitometry); conditions: SK-HEP-1, 30 μM, 2 hr
Experimental: as §1, §2, §3
A reaction mixture was prepared in individual microcentrifuge tubes containing 2 cDNA synthesis beads, 32 μl of the mRNA solution and 1 μl of pd(N)6. This mixture was incubated at 37° C. in a water bath for 60 minutes. After incubation, 27 μl of RNase-free DEPC treated water was added to each tube to make a total volume 60 μl. cDNA samples were prepared in duplicate. Sample 1 was used immediately in RT-PCR protocol.
Microcentrifuge tubes from puReTaq™Ready-To-Go™ PCR Beads containing one PCR bead were labeled for each sample required. Added to the PCR bead were 17 μl of RNase-free DEPC treated water, 1 μl sense primer, 1 μl anti-sense primer and 5 μl of the cDNA solution. RT-PCR conditions were as follows: Hsp70 and β-actin, pre-treatment step, 94° C. for 1 minute, followed by denaturing at 92° C. for 1 minute, annealing at 60° C. for 1 minute and extension at 72° C. for 1 minute. Total cycles, 30, post-treatment was then carried out at 72° C. for 10 minutes. For Hsp32, pre-treatment step, 95° C. for 2 minutes, followed by denaturing at 94° C. for 30 seconds, annealing at 58° C. for 1 minute and extension at 72° C. for 1 minute. […]

SK-HEP-1 cells [2] = test: Effect of homocysteine and H2O2 on endothelial cell viability (MTS assay); conditions: for Normalized Data Log 2, Mean / Normalized Data Log 10, Mean: Hcy alone, n = 6; for Cell viability (MTS assay): SK-HEP-1, 2 hours, n = 6 replicates
SK-HEP-1 cells [3] = test: NACCbl protection from homocysteine with inhibition of Hsp32/Hsp70 by Sn(IX) protoporphyrin, quercitin or siRNA (MTS assay); conditions: listed as Hcy
SK-HEP-1 cells [4] = test: Protection from homocysteine-induced apoptosis, Caspase-3 activity (apoptosis assay); assay type: cell-based, human; conditions: 30 μM two hours, then 30 μM homocysteine two hours
Experimental: Caspase 3 is activated when cells undergo apoptosis. Caspase-3 assay is a standard for apoptosis assay. Homocysteine is a known inducer of apoptosis. Cells were cultured in 96-well plates for 24 hours and then treated with reagents under test conditions. Cytotoxic agents, H2O2 and etoposide were added to negative control wells. The assay was performed according to the manufacturer's protocol, as follows: Cells were re-suspended in 100 μl of clear media and 50 μl of Caspase-3 substrate solution was immediately added to each test well. […] Cell viability was determined by MTS® assay. […] Cell viability was determined by MTS® assay.

## NC(CCS)C(=O)O (racemic) [Homocysteine, DL-Homocysteine]
SK-HEP-1 cells [1]; SK-HEP-1, NACCbl 30 μM, NAC 75 μM, Hcy conc. 200.000, n = 6, label Hcy = Hcy alone
  Absorbance at 490 nm, Mean: 0.360
SK-HEP-1 cells [1]; [Hcy] 30 μM, [NAC] = 45 μM, [NACCbl] = 12.5 μM, [Folate] = 25 μM where named in the label, label Hcy/HCy = Hcy alone
  Mean (FIG. 14, protection of SK-HEP-1 cells from Hcy): 0.616
SK-HEP-1 cells [1]; as E80, Hcy conc. 1.780
  Absorbance at 490 nm, Mean: 1.863
SK-HEP-1 cells [1]; as E80, Hcy conc. 3.125
  Absorbance at 490 nm, Mean: 1.578
SK-HEP-1 cells [1]; as E80, Hcy conc. 6.250
  Absorbance at 490 nm, Mean: 1.230
SK-HEP-1 cells [1]; as E80, Hcy conc. 12.500
  Absorbance at 490 nm, Mean: 1.177
SK-HEP-1 cells [1]; as E80, Hcy conc. 25.000
  Absorbance at 490 nm, Mean: 0.847
SK-HEP-1 cells [1]; as E80, Hcy conc. 50.000
  Absorbance at 490 nm, Mean: 0.739
SK-HEP-1 cells [1]; as E80, Hcy conc. 100.000
  Absorbance at 490 nm, Mean: 0.517
Hsp32; SK-HEP-1, 30 μM, 2 hr
  Hsp32 gene expression: increase in expression
Hsp32; SK-HEP-1, Sn (IX) protoporphyrin 25 μM, Quercitin 15 μM
  Hsp32 gene expression: induced
In vitro
  viability at 2 h, 0.781 µM: 99.8%
  viability at 2 h, 3.125 µM: 96%
Hsp70
  Hsp70 gene expression: increase in expression
SK-HEP-1 cells [2]; conc. 1.780
  Normalized Data Log 2, Mean: 59.351
  Normalized Data Log 10, Mean: 89.537
SK-HEP-1 cells [2]; conc. 3.125
  Normalized Data Log 2, Mean: 48.077
  Normalized Data Log 10, Mean: 73.700
SK-HEP-1 cells [2]; conc. 6.250
  Normalized Data Log 2, Mean: 34.347
  Normalized Data Log 10, Mean: 54.413
SK-HEP-1 cells [2]; conc. 12.500
  Normalized Data Log 2, Mean: 32.253
  Normalized Data Log 10, Mean: 51.471
SK-HEP-1 cells [2]; conc. 25.000
  Normalized Data Log 2, Mean: 19.208
  Normalized Data Log 10, Mean: 33.145
SK-HEP-1 cells [2]; conc. 50.000
  Normalized Data Log 2, Mean: 14.935
  Normalized Data Log 10, Mean: 27.142
SK-HEP-1 cells [2]; conc. 100.000
  Normalized Data Log 2, Mean: 6.164
  Normalized Data Log 10, Mean: 14.820
SK-HEP-1 cells [2]; conc. 200.000
  Normalized Data Log 2, Mean: −0.033
  Normalized Data Log 10, Mean: 6.115
SK-HEP-1 cells [2]; SK-HEP-1, 2 hours
  Concentration achieving greater than 90% death (<10% survival): 25 µM
SK-HEP-1 cells [2]; SK-HEP-1, 2 hours, p<0.001
  Concentration that killed cells: ≥ 5 µM
SK-HEP-1 cells [2]; 0.781 μM
  Cell viability (MTS assay): 98.11 and 102.5676 and 102.4576 and 98.72 and 98.39
SK-HEP-1 cells [2]; 1.562 μM
  Cell viability (MTS assay): 100.5319 and 102.4026 and 85.18 and 81.33 and 81.6 and 98.83
SK-HEP-1 cells [2]; 3.125 μM
  Cell viability (MTS assay): 91.62 and 82.82 and 78.3 and 80.94 and 91.78
SK-HEP-1 cells [2]; 6.25 μM
  Cell viability (MTS assay): 62.02 and 28.4 and 38.2485 and 48.6474 and 67.63 and 55.0298
SK-HEP-1 cells [2]; 25 μM
  Cell viability (MTS assay): 1.495 and 0.5044 and 0.1192
SK-HEP-1 cells [2]; 50 μM
  Cell viability (MTS assay): 0.2843 (2×) and 0.9445 and 1.44 and 3.255
SK-HEP-1 cells [3]; SK-HEP-1, NACCbl 30 μM two hours with or without Sn(IX)PP/quercetin, then Hcy conc. 200 two hours, label Hcy = Hcy alone
  Cell viability by MTS assay (FIG. 11), replicates 1-6: 0.33 and 0.312 and 0.39 and 0.302 and 0.421 and 0.406
SK-HEP-1 cells [3]; as E45, Hcy conc. 1.78
  Cell viability by MTS assay (FIG. 11), replicates 1-6: 1.746 and 1.932 and 1.95 and 1.83 and 1.837 and 1.884
SK-HEP-1 cells [3]; as E45, Hcy conc. 3.125
  Cell viability by MTS assay (FIG. 11), replicates 1-6: 1.543 and 1.487 and 1.656 and 1.63 and 1.593 and 1.558
SK-HEP-1 cells [3]; as E45, Hcy conc. 6.25
  Cell viability by MTS assay (FIG. 11), replicates 1-6: 1.304 and 1.406 and 1.227 and 1.176 and 1.15 and 1.119
SK-HEP-1 cells [3]; as E45, Hcy conc. 12.5
  Cell viability by MTS assay (FIG. 11), replicates 1-6: 1.104 and 1.001 and 1.042 and 1.114 and 1.324 and 1.479
SK-HEP-1 cells [3]; as E45, Hcy conc. 25
  Cell viability by MTS assay (FIG. 11), replicates 1-6: 0.692 and 0.956 and 0.876 and 0.882 and 0.937 and 0.74
SK-HEP-1 cells [3]; as E45, Hcy conc. 50
  Cell viability by MTS assay (FIG. 11), replicates 1-6: 0.678 and 0.881 and 0.602 and 0.77 and 0.724 and 0.779
SK-HEP-1 cells [3]; as E45, Hcy conc. 100
  Cell viability by MTS assay (FIG. 11), replicates 1-6: 0.654 and 0.449 and 0.466 and 0.501 and 0.522 and 0.51

## CN1c2c(nc(N)[nH]c2=O)NC[C@@H]1CNc1ccc(C(=O)N[C@@H](CCC(=O)O)C(=O)O)cc1 [folate, 5-Methyltetrahydrofolic acid disodium salt]
SK-HEP-1 cells [4]
  Protection against apoptosis induced by homocysteine: partial protection
Hsp32; SK-HEP-1, 30 μM, 2 hr
  Hsp32 gene expression: increase in expression
Hsp70
  Hsp70 gene expression: increase in expression
